Reference: US20170142962A1, “METHODS AND SOLUTIONS INCLUDING ADDITIVES AND STABILIZERS FOR KILLING OR DEACTIVATING SPORES” (EP Technologies LLC, priority 2015, published 2017)
Structures can show the parent of a compound that is named as a salt.

Tests used:
C. diff spores [1] = assay: Example 2: direct DBD plasma treatment of differing EtOH concentrations on spore-containing discs with soil; assay type: cell-based, Clostridium difficile; details: 12 μl, DBD 30 seconds
Method: In the following examples, various treatments were applied to measure the ability of plasma-activated liquids containing various additives to kill or deactivate spores from C. diff bacteria. Briefly, a volume of 10 μl of C. diff spores in sterile water (containing approximately 10^8 colony forming units (CFUs)/ml) was added onto a sterile stainless steel disc and left to dry for 30 minutes. The contaminated surfaces were then exposed to a treatment described below. After treatment, the killing or deactivation capacity of the treatment was measured by estimating the number of surviving CFUs. Estimation of surviving CFUs was determined by placing the disc in test tubes filled with a neutralizer. The test tubes were sonicated for 1 minute and vortexed for 15 seconds to fully remove spores from the surfaces. The neutralizer solution containing spores was diluted and plated on Brain Heart Infusion Agar supplemented with 0.1% Sodium Taurocholate (BHIT). The agar plates were incubated under anaerobic conditions for 36-48 hours at 37° C. CFUs were estimated based on colony counts on the agar plates following incubation. A direct plasma treatment (as shown in FIG. 1) with DBD was used for the testing. […] The gap distance between the plasma reactor and the disc was 2 mm.

C. diff spores [2] = assay: Example 11: plasma activated wipes used to wipe spore-containing surface; assay type: cell-based, Clostridium difficile; details: mechanical removal
Method: (§1) In the following examples, various treatments were applied to measure the ability of plasma-activated liquids containing various additives to kill or deactivate spores from C. diff bacteria. Briefly, a volume of 10 μl of C. diff spores in sterile water (containing approximately 10^8 colony forming units (CFUs)/ml) was added onto a sterile stainless steel disc and left to dry for 30 minutes. The contaminated surfaces were then exposed to a treatment described below. After treatment, the killing or deactivation capacity of the treatment was measured by estimating the number of surviving CFUs. Estimation of surviving CFUs was determined by placing the disc in test tubes filled with a neutralizer. The test tubes were sonicated for 1 minute and vortexed for 15 seconds to fully remove spores from the surfaces. The neutralizer solution containing spores was diluted and plated on Brain Heart Infusion Agar supplemented with 0.1% Sodium Taurocholate (BHIT). The agar plates were incubated under anaerobic conditions for 36-48 hours at 37° C. CFUs were estimated based on colony counts on the agar plates following incubation.

C. diff spores [3] = assay: Example 1: direct DBD plasma treatment of EtOH, H2O2 or water solutions on spore-containing discs with soil; assay type: cell-based, Clostridium difficile; details: DBD 30 seconds, 35% EtOH, 70% EtOH, 3% H2O2
Method: In the following examples, various treatments were applied to measure the ability of plasma-activated liquids containing various additives to kill or deactivate spores from C. diff bacteria. Briefly, a volume of 10 μl of C. diff spores in sterile water (containing approximately 10^8 colony forming units (CFUs)/ml) was added onto a sterile stainless steel disc and left to dry for 30 minutes. The contaminated surfaces were then exposed to a treatment described below. After treatment, the killing or deactivation capacity of the treatment was measured by estimating the number of surviving CFUs. Estimation of surviving CFUs was determined by placing the disc in test tubes filled with a neutralizer. The test tubes were sonicated for 1 minute and vortexed for 15 seconds to fully remove spores from the surfaces. The neutralizer solution containing spores was diluted and plated on Brain Heart Infusion Agar supplemented with 0.1% Sodium Taurocholate (BHIT). The agar plates were incubated under anaerobic conditions for 36-48 hours at 37° C. CFUs were estimated based on colony counts on the agar plates following incubation. A direct plasma treatment (as shown in FIG. 1) with DBD was used for the testing. The direct DBD was created by an AC sinusoidal voltage power supply with a power scale at 15 (approximately 20 kV peak-to-peak) and a driving frequency of 20.5 kHz. […]

[4] = cited from earlier work
C. diff spores [5] = assay: Example 3: direct DBD plasma treatment of H2O2 or NaNO2 solutions, spore inoculum in PBST; assay type: cell-based, Clostridium difficile; details: 1, 10, 100, 500 mM, 10 μl, DBD 20 seconds, two trials, NaNO2: other than at 10 mM
Method: as §1
A direct plasma treatment (as shown in FIG. 1) with DBD was used for the testing. […]

C. diff spores [6] = assay: Example 4: direct DBD plasma treatment of acid solutions, spore inoculum in PBST with soil; assay type: cell-based, Clostridium difficile; details: 0.0001% to 10% acid solutions, 3 μl, DBD 20 seconds
Method: as §1
A direct plasma treatment (as shown in FIG. 1) with DBD was used for the testing. The direct DBD was created by a microsecond pulsed power supply which creates discrete voltage bursts at a repetition rate of 3.5 kHz which consist of decaying sinusoidal waveforms with a frequency of 32 kHz and a peak-to-peak voltage of approximately 20 kV. The gap distance between the plasma reactor and the disc was 2 mm. Spore inoculum for the stainless steel disc was prepared in 1×PBST with soil instead of sterile water. Citric acid, acetic acid, or HCl was added to water to produce 0.0001% to 10% acid solutions. 3 μl of each of these solutions was added to the spore-containing discs. After application, the discs were subjected to DBD treatment for 20 seconds.

[7] = cited from earlier work; remark: listed apart in the source

In the case of `CCO` [EtOH, ethanol], the “killing or deactivation efficiency with increased concentration” value (C. diff spores [1]) is reported as “increasing killing or deactivation efficiency”, the “LR of wipe without plasma activation” value (C. diff spores [2]) is reported as roughly 0.7 LR and the “kill or deactivation efficiency as additive in the water, versus water alone” value (C. diff spores [3]) is reported as “substantially increased the kill or deactivation efficiency”.

In the case of `OO` [H2O2, hydrogen peroxide], the “OSHA permissible exposure limit” value ([4]; averaged over an 8-hour work shift) is listed as 1 ppm, the “AIHA ERPG-2 maximum airborne concentration” value ([4]; exposure up to an hour without irreversible or serious health effects) is listed as 50 ppm and the “kill or deactivation efficiency as additive in the water, versus water alone” value (C. diff spores [3]) is listed as “substantially increased the kill or deactivation efficiency”. The “effect of increasing the concentration on killing or deactivation efficiency” value (C. diff spores [5]) was “increased the killing or deactivation efficiency”.

With `Cl` [HCl, hydrochloric acid] the “killing or deactivation efficiency relative to water alone” value (C. diff spores [6]) was “increased the killing or deactivation efficiency”.

In the case of `O=NO` [NaNO2, sodium nitrite], the “effect of increasing the concentration on killing or deactivation efficiency” value (C. diff spores [5]) is reported as “did not increase the killing or deactivation efficiency”.

With `CC(=O)O` [acetic acid] the “killing or deactivation efficiency relative to water alone” value (C. diff spores [6]) was “increased the killing or deactivation efficiency”.

In the case of `O=C(O)CC(O)(CC(=O)O)C(=O)O` [citric acid], the “killing or deactivation efficiency relative to water alone” value (C. diff spores [6]) is reported as “increased the killing or deactivation efficiency”.

In the case of `O=NOO` [peroxynitrite], the half-life [7] is given as “around 1 second”.
